Experiments:
[1] = target: Sodium-dependent serotonin transporter (Homo sapiens, UniProt P31645)
[2] = target: Vascular endothelial growth factor receptor 2 (Homo sapiens, UniProt P35968); assay type: functional
[3] = target: Gamma-aminobutyric acid receptor subunit alpha-1/alpha-2/beta-2/gamma-2 (Homo sapiens, UniProt P14867+P18507+P47869+P47870); assay type: protein-complex assay
[4] = target: Beta-2 adrenergic receptor (Homo sapiens, UniProt P07550); assay type: functional, cell-based
[5] = target: T1, Alpha-2A adrenergic receptor (Homo sapiens, UniProt P08913); assay type: functional, cell-based
T1 sequence (P08913 whole entry): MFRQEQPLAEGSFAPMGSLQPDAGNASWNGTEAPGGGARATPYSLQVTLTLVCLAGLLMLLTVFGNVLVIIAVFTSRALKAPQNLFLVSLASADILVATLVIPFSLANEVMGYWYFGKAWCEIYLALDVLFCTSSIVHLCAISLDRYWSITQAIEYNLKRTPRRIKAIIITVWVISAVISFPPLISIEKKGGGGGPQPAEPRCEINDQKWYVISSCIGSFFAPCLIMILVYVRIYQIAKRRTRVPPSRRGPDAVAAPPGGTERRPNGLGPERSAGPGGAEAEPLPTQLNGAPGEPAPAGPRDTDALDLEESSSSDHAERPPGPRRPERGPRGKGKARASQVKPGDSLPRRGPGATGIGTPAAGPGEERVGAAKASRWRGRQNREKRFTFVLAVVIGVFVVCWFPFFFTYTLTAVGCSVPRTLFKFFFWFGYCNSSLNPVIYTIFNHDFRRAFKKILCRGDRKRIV

[6] = target: Sodium-dependent dopamine transporter (Homo sapiens, UniProt Q01959)
[7] = target: Beta-1 adrenergic receptor (Homo sapiens, UniProt P08588); assay type: functional
[8] = target: T2, Amine oxidase [flavin-containing] A (Homo sapiens, UniProt P21397); assay type: functional
T2 sequence (P21397 whole entry): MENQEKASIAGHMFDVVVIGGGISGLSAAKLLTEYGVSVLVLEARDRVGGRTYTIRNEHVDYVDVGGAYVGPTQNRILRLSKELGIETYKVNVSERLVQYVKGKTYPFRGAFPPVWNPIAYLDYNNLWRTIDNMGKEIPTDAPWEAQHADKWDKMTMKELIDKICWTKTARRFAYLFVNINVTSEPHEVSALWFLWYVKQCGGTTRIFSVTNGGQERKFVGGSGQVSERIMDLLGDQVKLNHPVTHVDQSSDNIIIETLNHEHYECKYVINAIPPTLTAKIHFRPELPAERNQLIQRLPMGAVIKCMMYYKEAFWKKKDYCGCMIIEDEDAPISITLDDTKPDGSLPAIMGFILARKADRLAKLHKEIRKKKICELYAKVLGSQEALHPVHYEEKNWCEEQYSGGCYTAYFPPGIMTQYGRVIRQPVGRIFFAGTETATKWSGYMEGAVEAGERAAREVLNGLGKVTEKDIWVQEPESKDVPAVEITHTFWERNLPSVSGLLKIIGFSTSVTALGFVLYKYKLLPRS

[9] = target: T3, Type-1 angiotensin II receptor (Homo sapiens, UniProt P30556)
T3 sequence (P30556 whole entry): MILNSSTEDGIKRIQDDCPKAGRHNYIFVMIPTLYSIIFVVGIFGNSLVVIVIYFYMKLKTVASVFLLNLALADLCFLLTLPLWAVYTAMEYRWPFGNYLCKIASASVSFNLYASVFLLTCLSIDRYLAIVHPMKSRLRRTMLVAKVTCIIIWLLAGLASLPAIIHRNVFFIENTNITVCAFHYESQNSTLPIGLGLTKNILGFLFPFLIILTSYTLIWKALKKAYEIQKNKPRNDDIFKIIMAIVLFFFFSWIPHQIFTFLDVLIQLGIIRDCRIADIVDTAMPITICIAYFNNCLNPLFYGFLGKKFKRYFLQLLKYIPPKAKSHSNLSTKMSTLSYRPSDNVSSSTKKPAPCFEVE

[10] = target: T4, 5-hydroxytryptamine receptor 1A (Homo sapiens, UniProt P08908); assay type: functional, cell-based
T4 sequence (P08908 whole entry): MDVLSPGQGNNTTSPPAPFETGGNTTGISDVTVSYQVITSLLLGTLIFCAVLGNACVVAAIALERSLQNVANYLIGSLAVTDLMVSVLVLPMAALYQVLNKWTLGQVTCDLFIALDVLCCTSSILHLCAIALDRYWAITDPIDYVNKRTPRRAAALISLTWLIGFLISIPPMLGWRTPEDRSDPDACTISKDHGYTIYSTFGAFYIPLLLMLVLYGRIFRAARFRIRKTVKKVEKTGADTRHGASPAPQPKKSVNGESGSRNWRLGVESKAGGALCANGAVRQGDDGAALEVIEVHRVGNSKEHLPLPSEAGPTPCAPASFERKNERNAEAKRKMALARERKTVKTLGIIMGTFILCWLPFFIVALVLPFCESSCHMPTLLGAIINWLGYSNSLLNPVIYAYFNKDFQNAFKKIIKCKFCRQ

[11] = target: T5, Equilibrative nucleoside transporter 1 (Homo sapiens, UniProt Q99808)
T5 sequence (Q99808 whole entry): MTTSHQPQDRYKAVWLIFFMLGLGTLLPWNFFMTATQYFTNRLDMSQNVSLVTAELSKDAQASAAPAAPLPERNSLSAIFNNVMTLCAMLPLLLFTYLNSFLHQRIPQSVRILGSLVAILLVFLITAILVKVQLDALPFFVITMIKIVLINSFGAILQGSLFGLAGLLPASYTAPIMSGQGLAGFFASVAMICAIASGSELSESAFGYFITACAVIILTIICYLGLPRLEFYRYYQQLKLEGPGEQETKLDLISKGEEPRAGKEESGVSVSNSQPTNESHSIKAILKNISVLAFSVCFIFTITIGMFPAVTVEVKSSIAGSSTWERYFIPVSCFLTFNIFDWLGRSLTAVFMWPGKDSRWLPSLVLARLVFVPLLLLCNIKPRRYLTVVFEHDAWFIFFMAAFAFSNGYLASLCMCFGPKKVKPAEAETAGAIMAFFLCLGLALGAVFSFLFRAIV
Note: assay procedure not described here.

Chain of Beta-1 adrenergic receptor (P08588 whole entry): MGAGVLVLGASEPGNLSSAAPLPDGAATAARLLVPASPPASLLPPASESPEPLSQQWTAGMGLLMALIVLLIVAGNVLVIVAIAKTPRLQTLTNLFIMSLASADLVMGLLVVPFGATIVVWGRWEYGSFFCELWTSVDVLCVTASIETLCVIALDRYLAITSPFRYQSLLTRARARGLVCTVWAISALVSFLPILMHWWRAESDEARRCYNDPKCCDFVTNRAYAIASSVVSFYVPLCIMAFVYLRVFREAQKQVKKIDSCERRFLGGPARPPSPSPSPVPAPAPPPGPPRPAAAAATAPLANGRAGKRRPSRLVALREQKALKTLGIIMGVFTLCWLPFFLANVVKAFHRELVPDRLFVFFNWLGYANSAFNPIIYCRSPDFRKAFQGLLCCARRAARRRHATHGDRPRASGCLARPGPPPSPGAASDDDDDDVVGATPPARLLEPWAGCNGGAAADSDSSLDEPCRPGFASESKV
Chain of Gamma-aminobutyric acid receptor subunit alpha-1/alpha-2/beta-2/gamma-2 (P14867 whole entry): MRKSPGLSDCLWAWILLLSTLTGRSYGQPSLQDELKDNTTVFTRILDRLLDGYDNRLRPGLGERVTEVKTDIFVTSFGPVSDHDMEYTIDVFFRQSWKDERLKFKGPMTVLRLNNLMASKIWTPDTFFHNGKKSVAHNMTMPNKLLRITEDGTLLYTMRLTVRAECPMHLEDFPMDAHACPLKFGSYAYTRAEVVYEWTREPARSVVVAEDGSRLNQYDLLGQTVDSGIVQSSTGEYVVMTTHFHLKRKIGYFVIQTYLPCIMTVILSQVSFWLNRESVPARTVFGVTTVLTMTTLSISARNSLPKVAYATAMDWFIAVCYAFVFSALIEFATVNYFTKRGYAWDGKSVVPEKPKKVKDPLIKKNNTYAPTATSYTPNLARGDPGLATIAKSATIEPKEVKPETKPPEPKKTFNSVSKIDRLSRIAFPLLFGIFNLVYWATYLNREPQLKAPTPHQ
Chain of Gamma-aminobutyric acid receptor subunit alpha-1/alpha-2/beta-2/gamma-2 (P47870 whole entry): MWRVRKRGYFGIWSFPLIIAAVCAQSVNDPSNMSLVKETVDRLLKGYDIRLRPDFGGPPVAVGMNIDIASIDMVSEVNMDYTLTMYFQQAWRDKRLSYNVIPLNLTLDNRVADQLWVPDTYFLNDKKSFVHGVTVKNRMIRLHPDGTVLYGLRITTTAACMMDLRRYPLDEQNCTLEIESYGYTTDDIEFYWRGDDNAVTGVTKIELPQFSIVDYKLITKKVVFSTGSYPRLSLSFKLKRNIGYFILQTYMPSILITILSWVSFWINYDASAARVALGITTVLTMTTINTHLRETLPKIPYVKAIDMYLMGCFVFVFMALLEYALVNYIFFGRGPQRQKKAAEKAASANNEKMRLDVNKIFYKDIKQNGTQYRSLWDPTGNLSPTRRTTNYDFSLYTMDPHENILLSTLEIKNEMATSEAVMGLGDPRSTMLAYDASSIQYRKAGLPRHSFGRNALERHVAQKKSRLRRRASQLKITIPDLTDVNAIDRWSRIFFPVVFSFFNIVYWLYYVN
Chain of Gamma-aminobutyric acid receptor subunit alpha-1/alpha-2/beta-2/gamma-2 (P18507 whole entry): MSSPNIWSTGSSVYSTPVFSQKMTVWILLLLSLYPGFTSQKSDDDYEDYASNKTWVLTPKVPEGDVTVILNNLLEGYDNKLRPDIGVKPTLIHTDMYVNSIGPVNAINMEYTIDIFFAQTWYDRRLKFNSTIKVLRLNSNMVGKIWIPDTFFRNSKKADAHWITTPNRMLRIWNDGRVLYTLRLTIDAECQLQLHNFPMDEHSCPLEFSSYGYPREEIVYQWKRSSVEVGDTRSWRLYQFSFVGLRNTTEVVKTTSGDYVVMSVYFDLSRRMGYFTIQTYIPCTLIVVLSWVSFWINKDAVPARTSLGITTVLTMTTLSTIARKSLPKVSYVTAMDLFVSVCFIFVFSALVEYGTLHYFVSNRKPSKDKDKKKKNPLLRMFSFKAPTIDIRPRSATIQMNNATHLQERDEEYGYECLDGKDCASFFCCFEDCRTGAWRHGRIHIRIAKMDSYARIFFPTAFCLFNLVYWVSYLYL
Chain of Gamma-aminobutyric acid receptor subunit alpha-1/alpha-2/beta-2/gamma-2 (P47869 whole entry): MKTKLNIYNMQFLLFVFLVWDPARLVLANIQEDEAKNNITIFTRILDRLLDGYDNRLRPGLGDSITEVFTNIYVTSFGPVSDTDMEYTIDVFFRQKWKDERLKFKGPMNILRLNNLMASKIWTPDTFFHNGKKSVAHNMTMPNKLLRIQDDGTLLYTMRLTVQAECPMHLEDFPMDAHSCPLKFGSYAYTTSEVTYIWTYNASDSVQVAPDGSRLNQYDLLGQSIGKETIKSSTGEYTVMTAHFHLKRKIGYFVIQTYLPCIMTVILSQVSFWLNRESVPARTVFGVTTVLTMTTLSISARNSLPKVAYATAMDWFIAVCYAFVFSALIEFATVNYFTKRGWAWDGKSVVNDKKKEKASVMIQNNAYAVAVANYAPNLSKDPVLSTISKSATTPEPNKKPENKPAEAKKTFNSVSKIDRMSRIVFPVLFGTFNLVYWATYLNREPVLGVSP
Chain of Vascular endothelial growth factor receptor 2 (P35968 whole entry): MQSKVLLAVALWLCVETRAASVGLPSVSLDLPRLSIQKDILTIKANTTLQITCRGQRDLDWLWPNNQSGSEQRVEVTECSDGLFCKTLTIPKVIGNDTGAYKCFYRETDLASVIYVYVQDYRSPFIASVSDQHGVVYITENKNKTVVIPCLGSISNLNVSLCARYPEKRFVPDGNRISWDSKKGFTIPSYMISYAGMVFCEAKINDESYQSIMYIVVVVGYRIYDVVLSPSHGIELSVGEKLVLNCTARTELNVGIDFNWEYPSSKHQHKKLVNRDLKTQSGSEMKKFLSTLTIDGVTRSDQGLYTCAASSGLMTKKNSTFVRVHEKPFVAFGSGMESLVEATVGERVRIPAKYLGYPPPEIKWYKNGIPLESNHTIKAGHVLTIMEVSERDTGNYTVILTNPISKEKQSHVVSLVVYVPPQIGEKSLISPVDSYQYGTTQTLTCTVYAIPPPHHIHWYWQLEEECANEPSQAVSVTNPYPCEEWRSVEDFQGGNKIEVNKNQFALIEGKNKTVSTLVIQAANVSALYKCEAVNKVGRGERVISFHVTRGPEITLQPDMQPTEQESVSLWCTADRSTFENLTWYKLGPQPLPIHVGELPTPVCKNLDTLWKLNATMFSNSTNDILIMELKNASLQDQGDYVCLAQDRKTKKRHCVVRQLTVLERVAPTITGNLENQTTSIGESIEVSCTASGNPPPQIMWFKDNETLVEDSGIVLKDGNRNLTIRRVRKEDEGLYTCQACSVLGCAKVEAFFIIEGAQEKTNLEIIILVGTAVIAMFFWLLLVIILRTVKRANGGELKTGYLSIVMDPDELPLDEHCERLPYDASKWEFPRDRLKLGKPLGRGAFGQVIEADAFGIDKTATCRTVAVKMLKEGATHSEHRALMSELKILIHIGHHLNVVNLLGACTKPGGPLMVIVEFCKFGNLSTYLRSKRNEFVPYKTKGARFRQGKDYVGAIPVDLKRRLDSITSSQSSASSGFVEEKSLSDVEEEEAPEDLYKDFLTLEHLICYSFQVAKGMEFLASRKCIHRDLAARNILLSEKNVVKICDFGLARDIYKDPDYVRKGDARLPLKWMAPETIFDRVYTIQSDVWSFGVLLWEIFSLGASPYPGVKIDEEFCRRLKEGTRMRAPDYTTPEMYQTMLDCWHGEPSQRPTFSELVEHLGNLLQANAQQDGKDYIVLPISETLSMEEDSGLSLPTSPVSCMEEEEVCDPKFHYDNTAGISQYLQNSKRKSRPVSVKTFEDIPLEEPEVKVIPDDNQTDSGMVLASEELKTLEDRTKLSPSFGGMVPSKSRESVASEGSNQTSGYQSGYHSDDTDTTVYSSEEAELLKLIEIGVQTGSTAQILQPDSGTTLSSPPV
Chain of Sodium-dependent serotonin transporter (P31645 whole entry): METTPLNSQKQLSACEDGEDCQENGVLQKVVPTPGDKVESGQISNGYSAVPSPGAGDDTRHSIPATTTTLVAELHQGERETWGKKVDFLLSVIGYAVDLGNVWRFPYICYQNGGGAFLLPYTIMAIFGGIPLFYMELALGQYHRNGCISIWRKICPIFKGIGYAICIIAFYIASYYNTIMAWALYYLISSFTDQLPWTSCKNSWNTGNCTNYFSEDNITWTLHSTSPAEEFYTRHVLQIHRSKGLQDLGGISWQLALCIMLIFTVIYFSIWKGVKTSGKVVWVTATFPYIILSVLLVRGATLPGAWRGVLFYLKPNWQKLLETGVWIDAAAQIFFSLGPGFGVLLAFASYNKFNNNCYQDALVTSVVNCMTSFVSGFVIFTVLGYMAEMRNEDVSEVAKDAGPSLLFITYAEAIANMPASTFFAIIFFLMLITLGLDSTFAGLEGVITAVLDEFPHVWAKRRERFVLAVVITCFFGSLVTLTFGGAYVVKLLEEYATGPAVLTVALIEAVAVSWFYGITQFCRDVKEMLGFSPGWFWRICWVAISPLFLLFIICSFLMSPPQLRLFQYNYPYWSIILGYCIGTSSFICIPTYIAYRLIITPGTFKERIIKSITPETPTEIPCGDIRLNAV
Chain of Beta-2 adrenergic receptor (P07550 whole entry): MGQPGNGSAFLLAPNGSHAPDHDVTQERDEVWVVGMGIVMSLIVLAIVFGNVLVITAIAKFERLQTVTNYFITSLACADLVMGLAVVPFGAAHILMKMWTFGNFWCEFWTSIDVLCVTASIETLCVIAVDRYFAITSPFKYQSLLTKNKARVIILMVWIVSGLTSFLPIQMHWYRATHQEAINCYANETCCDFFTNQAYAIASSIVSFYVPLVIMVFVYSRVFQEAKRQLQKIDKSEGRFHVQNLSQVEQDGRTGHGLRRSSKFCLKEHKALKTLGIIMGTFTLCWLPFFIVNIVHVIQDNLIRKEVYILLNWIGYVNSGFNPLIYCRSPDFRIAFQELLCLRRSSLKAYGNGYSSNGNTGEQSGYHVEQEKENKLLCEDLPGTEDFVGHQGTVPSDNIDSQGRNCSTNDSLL

| SMILES | AC50 [1] [µM] | AC50 [2] [µM] | AC50 [3] [µM] | AC50 [4] [µM] | AC50 [5] [µM] | AC50 [6] [µM] | AC50 [7] [µM] | AC50 [8] [µM] | AC50 [9] [µM] | AC50 [10] [µM] | AC50 [11] [µM] |
| --- | --- | --- | --- | --- | --- | --- | --- | --- | --- | --- | --- |
| COc1nccnc1NS(=O)(=O)c1ccc(N)cc1 | > 30 | > 30 | > 30 | – | – | – | – | – | – | – | – |
| CN(C)CCCN1C(=O)c2cc([N+](=O)[O-])ccc2Oc2ccccc21 | 0.271 | > 30 | > 30 | – | – | – | – | – | – | – | – |
| O=S(=O)(O)CCS [2-MERCAPTOETHANESULFONIC ACID] | – | > 30 | > 30 | – | – | – | – | – | – | – | – |
| O=C(O)COc1nn(Cc2ccccc2)c2ccccc12 [BENDAZAC] | > 30 | > 30 | > 30 | – | – | – | – | – | – | – | – |
| O=C(O)CCCc1ccc(N(CCCl)CCCl)cc1 [CHLORAMBUCIL] | – | > 30 | 22.1 | – | – | – | – | – | – | – | – |
| CN(CC(=O)O)C(=N)N [CREATINE] | > 30 | > 30 | > 30 | – | – | – | – | – | – | – | – |
| Cn1c(=O)c2c(ncn2CC(O)CO)n(C)c1=O (centres undefined) [DYPHYLLINE] | – | > 30 | > 30 | – | – | – | – | – | – | – | – |
| C#Cc1cccc(Nc2ncnc3cc(OCCOC)c(OCCOC)cc23)c1 [ERLOTINIB] | – | – | > 30 | > 30 | > 30 | > 30 | > 30 | > 30 | > 30 | > 30 | 29 |
| CCC(=O)O[C@@H](O[P@](=O)(CCCCc1ccccc1)CC(=O)N1C[C@H](C2CCCCC2)C[C@H]1C(=O)O)C(C)C [FOSINOPRIL] | > 30 | – | – | > 30 | > 30 | – | – | > 30 | – | > 30 | – |
| Cc1cc2c(OCC(O)CNC(C)C)cccc2[nH]1 (centres undefined) [MEPINDOLOL] | > 30 | > 30 | > 30 | – | – | – | – | – | – | – | – |
| CC(=O)/N=c1/sc(S(N)(=O)=O)nn1C [METHAZOLAMIDE] | > 30 | > 30 | > 30 | – | > 10 | > 10 | > 10 | > 10 | > 10 | > 10 | > 10 |
| CCOc1cc(N)c(Cl)cc1C(=O)NCC1CN(Cc2ccc(F)cc2)CCO1 (centres undefined) [MOSAPRIDE] | – | > 30 | > 30 | – | – | – | – | – | – | – | – |
| CCOc1ccc2ccccc2c1C(=O)N[C@@H]1C(=O)N2[C@@H]1SC(C)(C)[C@@H]2C(=O)O [NAFCILLIN] | > 30 | > 30 | > 30 | – | – | – | – | – | – | – | – |
| CN1CCC[C@H]1c1cccnc1 [NICOTINE] | – | > 30 | > 30 | – | – | – | – | – | – | – | – |
| CC(=O)Oc1ccccc1C(=O)Nc1ncc([N+](=O)[O-])s1 [NITAZOXANIDE] | > 30 | > 30 | > 30 | – | 19 | 7.3 | 8.8 | 7.5 | 5.6 | > 30 | 1.9 |
| CN(C)c1cc(CNCC(C)(C)C)c(O)c2c1C[C@H]1C[C@H]3[C@H](N(C)C)C(O)=C(C(N)=O)C(=O)[C@@]3(O)C(O)=C1C2=O [OMADACYCLINE] | > 30 | – | – | > 30 | > 30 | > 30 | > 30 | > 30 | > 30 | > 30 | > 10 |
| CCCCCCCCCCC[C@@H](C[C@@H]1OC(=O)[C@H]1CCCCCC)OC(=O)[C@H](CC(C)C)NC=O [ORLISTAT] | > 30 | > 30 | > 30 | – | – | – | – | – | – | – | – |
| O=C1[C@H]2CCCC[C@H]2C(=O)N1CCCCN1CCN(c2nsc3ccccc23)CC1 [PEROSPIRONE] | 3.73 | > 30 | > 30 | – | – | – | – | – | – | – | – |
| CN(C)CCC(c1ccccc1)c1ccccn1 (centres undefined) [PHENIRAMINE] | 7.98 | > 30 | > 30 | – | – | – | – | – | – | – | – |
| CC(C)(C)C(=O)NCCCC(=O)O [PIVAGABINE] | > 30 | > 30 | > 30 | – | – | – | – | – | – | – | – |
| CC(C)[N+](C)(CCOC(=O)C1c2ccccc2Oc2ccccc21)C(C)C [PROPANTHELINE] | > 30 | > 30 | > 30 | – | – | – | – | – | – | – | – |
| CNC(=O)c1cc(Oc2ccc(NC(=O)Nc3ccc(Cl)c(C(F)(F)F)c3)c(F)c2)ccn1 [REGORAFENIB] | > 30 | – | – | > 30 | – | 6.33 | > 30 | 9.05 | – | – | – |
| CN(C)C(=O)c1nc(CNC(=O)CN)n(-c2ccc(Cl)cc2C(=O)c2ccccc2Cl)n1 [RILMAZAFONE] | > 30 | > 30 | > 30 | – | – | – | – | – | – | – | – |
| NC(=O)NS(=O)(=O)c1ccc(N)cc1 [SULFACARBAMIDE] | > 30 | > 30 | > 30 | – | – | – | – | – | – | – | – |
| CCCCCCCCNC(C)C(O)c1ccc(SC(C)C)cc1 (centres undefined) [SULOCTIDIL] | – | > 30 | > 10 | – | – | – | – | – | – | – | – |
| CN1CCN(CCCN2c3ccccc3Sc3ccc(S(=O)(=O)N(C)C)cc32)CC1 [THIOPROPERAZINE] | 17.3 | – | – | > 30 | > 30 | – | – | > 30 | – | – | – |
| CCCCCCCCCCCCCCCC(=O)OC/C=C(C)/C=C/C=C(C)/C=C/C1=C(C)CCCC1(C)C [VITAMIN A PALMITATE] | > 30 | > 30 | > 30 | – | – | – | – | – | – | – | – |
| Cc1cc(CC(=O)O)n(C)c1C(=O)c1ccc(Cl)cc1 [ZOMEPIRAC] | – | – | – | > 30 | > 30 | > 30 | > 30 | > 30 | > 30 | > 30 | > 30 |
